Here are results for 2 molecules from paper PMC12051030, “Identification of inhibitors of the Salmonella FraB deglycase, a drug target” (FEBS Open Bio, 2025).

Data set [1] has as its target T1, FraB (Salmonella enterica subsp. enterica serovar Typhimurium, UniProt Q8ZLD0). In words: FraB assay, Michaelis–Menten kinetics with substrate. Type of data set: biochemical. The protocol: The substrate for FraB, 6‐P‐F‐Asp, was synthesized as previously described. FraB activity was monitored as described previously, with the following changes. The final reaction (30 μL) consisted of 25 mM HEPES pH 8 (at 20 °C), 5 mM MgCl2, 0.1 mM ethylene glycol tetraacetic acid (EGTA), 0.5 mM NAD^+, 1 mU G6PD from Leuconostoc mesenteroides (#LS003981; Worthington Biochemicals, Lakewood, NJ, USA), 100 nM His6‐FraB, and 0–3 mM 6‐P‐F‐Asp. The reaction mixture without substrate (29 μL) was added to one well of a 384‐well polystyrene white μClear® microplate (#781095; Greiner Bio‐One, Monroe, NC, USA) and incubated at 37 °C for 2 min, prior to the addition of 1 μL substrate to initiate the reaction. NADH generation was monitored using either absorbance (340 nm) or fluorescence (350 nm excitation, 450 nm emission) and with either an INFINITE M1000 PRO (Tecan, Mannedorf, Switzerland) or Synergy H1 (Biotek, Winooski, VT, USA) plate reader. Absorbance/fluorescence was plotted against time and slopes were obtained by linear regression analyses. These slopes were converted into initial velocities by dividing them by either the absorbance extinction coefficient (ε340 = 6,220 M ^−1·cm^−1) or the molar fluorescence determined based on standard curves obtained in different plate readers (23,646 RFUs·μM ^−1, Tecan; 285,108 RFUs·μM ^−1, Biotek; Fig. S2). […]

The target in data set [2] is T1, FraB. The settings on record: previously reported; cited from earlier work.
Substrate in data set [3]: O=C(O)C[C@H](NCC1(O)O[C@H](COP(=O)(O)O)[C@@H](O)[C@@H]1O)C(=O)O
As to the kind of experiment: FraB assay, Michaelis–Menten kinetics with substrate. The data set is classed as biochemical, Salmonella. The settings on record: pH 8.0. The procedure:
The substrate for FraB, 6‐P‐F‐Asp, was synthesized as previously described. FraB activity was monitored as described previously, with the following changes. The final reaction (30 μL) consisted of 25 mM HEPES pH 8 (at 20 °C), 5 mM MgCl2, 0.1 mM ethylene glycol tetraacetic acid (EGTA), 0.5 mM NAD^+, 1 mU G6PD from Leuconostoc mesenteroides (#LS003981; Worthington Biochemicals, Lakewood, NJ, USA), 100 nM His6‐FraB, and 0–3 mM 6‐P‐F‐Asp. The reaction mixture without substrate (29 μL) was added to one well of a 384‐well polystyrene white μClear® microplate (#781095; Greiner Bio‐One, Monroe, NC, USA) and incubated at 37 °C for 2 min, prior to the addition of 1 μL substrate to initiate the reaction. NADH generation was monitored using either absorbance (340 nm) or fluorescence (350 nm excitation, 450 nm emission) and with either an INFINITE M1000 PRO (Tecan, Mannedorf, Switzerland) or Synergy H1 (Biotek, Winooski, VT, USA) plate reader. Absorbance/fluorescence was plotted against time and slopes were obtained by linear regression analyses. These slopes were converted into initial velocities by dividing them by either the absorbance extinction coefficient (ε340 = 6,220 M ^−1·cm^−1) or the molar fluorescence determined based on standard curves obtained in different plate readers (23,646 RFUs·μM ^−1, Tecan; 285,108 RFUs·μM ^−1, Biotek; Fig. S2). These initial velocities (v o) in turn were plotted against [6‐P‐F‐Asp] to obtain Michaelis–Menten curves that were fit to the formula v o = (V max × [S])/(K m + [S]) by Kaleidagraph (Version 4.5.3; Synergy Software, Reading, PA, USA). The activity of recombinant FraB (Fig. S3) was similar to that as reported previously.

[4] abbreviates: other: newer batches of substrate.
Setting [5] is: other: representative Michaelis-Menten plot, Fig. S3, curve-fit errors.

Where two headings read alike, the source gives them in different places.

For the molecule `O=C(O)C[C@H](NCC1(O)O[C@H](COP(=O)(O)O)[C@@H](O)[C@@H]1O)C(=O)O` (stereo partly shown) [6‐P‐F‐Asp, 6‐phosphofructose‐aspartate], the K m in data set [1] (approximate value used for [S]/K m) is ~ 40 μM; in data set [1] (newer batches of substrate), 0.042 ± 0.007 mM; in data set [2] it was 116 ± 12 µM. The k cat in data set [2] is 1.05 ± 0.167 s⁻¹. In data set [2], the “k cat/K m” value is 543 min^−1 mM ^−1.

B1: FraB (Salmonella enterica subsp. enterica serovar Typhimurium str. LT2) (protein)
chain: MMGMKETVSNIVTSQAEKGGVKHVYYVACGGSYAAFYPAKAFLEKEAKALTVGLYNSGEFINNPPVALGENAVVVVASHKGNTPETIKAAEIARQHGAPVIGLTWIMDSPLVAHCDYVETYTFGDGKDIAGEKTMKGLLSAVELLQQTEGYAHYDDFQDGVSKINRIVWRACEQVAERAQAFAQEYKDDKVIYTVASGAGYGAAYLQSICIFMEMQWIHSACIHSGEFFHGPFEITDANTPFFFQFSEGNTRAVDERALNFLKKYGRRIEVVDAKELGLSTIKTTVIDYFNHSLFNNVYPVYNRALAEARQHPLTTRRYMWKVEY
One may read the kcat as the number of substrate molecules converted per active site and unit of time at saturation. As usually defined, the kcat/Km is the second-order rate constant that governs catalysis at low substrate concentration. In general, Km refers to the concentration of substrate that gives half-maximal velocity. Regarding B1, in data set [3] (setting [4]), the kcat came out at 0.95 ± 0.012 s⁻¹ and the kcat/Km is on record as 1,357 min^−1 mM ^−1. For the same molecule, in data set [3] (setting [5]), the Km is 67 ± 8 µM, the kcat is 1.16 ± 0.00317 s⁻¹ and the kcat/Km stood at 1040 min⁻¹ mM⁻¹.
